Results taken from PubChem BioAssay AID2060906 (Molecular Pharmacology Branch, DTP, NCI, 2025).

Tested on: 485176-168-R4-J1-PDC complex spheroid growth
Experiment: Anticancer human tumor 485176-168-R4-J1-PDC patient-derived pancreatic adenocarcinoma cell line growth inhibition [RAS]
Conditions: for viability, T/C: stronger effect = lower value; active = viability on the fitted dose curve at most 10% of control; inactive = the rest
Outline: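 Tumour cells grown as complex spheroids with HUVEC endothelial cells and mesenchymal stem cells, treated with RAS pathway inhibitor combinations. Each agent spans half-log steps from near clinical Cmax, or 10 microM where Cmax is unknown.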
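Also: spheroids exposed to compounds for seven days before readout.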
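For viability, T/C in this document: luminescence viability expressed relative to DMSO vehicle wells set as 100%.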

C=CC(=O)N1CCN(c2nc(OCC3CCCN3C)nc3c(F)c(-c4nc(N)cc(C)c4C(F)(F)F)c(Cl)cc23)C(C)C1 (stereo unspecified) + CCn1c(-c2cccnc2C(C)OC)c2c3cc(ccc31)N1CCOC(CC(NC(=O)C(C(C)C)N(C)C(=O)C3(F)CCN(C(=O)C#CC(C)(C)N(C)C)CC3)C(=O)N3CCCC(N3)C(=O)OCC(C)(C)C2)C1
inactive: viability, T/C (second compound 0.000949 µM, first compound 0.00316 µM) 109% | viability, T/C (second compound 0.000949 µM, first compound 0.01 µM) 90.2% | viability, T/C (second compound 0.000949 µM, first compound 0.0316 µM) 108% | viability, T/C (second compound 0.000949 µM, first compound 0.1 µM) 88.8% | viability, T/C (second compound 0.000949 µM, first compound 0.316 µM) 113% | viability, T/C (second compound 0.000949 µM, first compound 1 µM) 89.4% | viability, T/C (second compound 0.003 µM, first compound 0.00316 µM) 94.2% | viability, T/C (second compound 0.003 µM, first compound 0.01 µM) 94.5% | viability, T/C (second compound 0.003 µM, first compound 0.0316 µM) 96.2% | viability, T/C (second compound 0.003 µM, first compound 0.1 µM) 93.4% | viability, T/C (second compound 0.003 µM, first compound 0.316 µM) 115% | viability, T/C (second compound 0.003 µM, first compound 1 µM) 105% | viability, T/C (second compound 0.00949 µM, first compound 0.00316 µM) 92.2% | viability, T/C (second compound 0.00949 µM, first compound 0.01 µM) 93.6% | viability, T/C (second compound 0.00949 µM, first compound 0.0316 µM) 96.9% | viability, T/C (second compound 0.00949 µM, first compound 0.1 µM) 94.4% | viability, T/C (second compound 0.00949 µM, first compound 0.316 µM) 105% | viability, T/C (second compound 0.00949 µM, first compound 1 µM) 108% | viability, T/C (second compound 0.03 µM, first compound 0.00316 µM) 98.5% | viability, T/C (second compound 0.03 µM, first compound 0.01 µM) 105% | viability, T/C (second compound 0.03 µM, first compound 0.0316 µM) 101% | viability, T/C (second compound 0.03 µM, first compound 0.1 µM) 111% | viability, T/C (second compound 0.03 µM, first compound 0.316 µM) 117% | viability, T/C (second compound 0.03 µM, first compound 1 µM) 85.8% | viability, T/C (second compound 0.0949 µM, first compound 0.00316 µM) 88.2% | viability, T/C (second compound 0.0949 µM, first compound 0.01 µM) 83.7% | viability, T/C (second compound 0.0949 µM, first compound 0.0316 µM) 101% | viability, T/C (second compound 0.0949 µM, first compound 0.1 µM) 95.1% | viability, T/C (second compound 0.0949 µM, first compound 0.316 µM) 115% | viability, T/C (second compound 0.0949 µM, first compound 1 µM) 92.2% | viability, T/C (second compound 0.3 µM, first compound 0.00316 µM) 74.2% | viability, T/C (second compound 0.3 µM, first compound 0.01 µM) 74.1% | viability, T/C (second compound 0.3 µM, first compound 0.0316 µM) 79.6% | viability, T/C (second compound 0.3 µM, first compound 0.1 µM) 82% | viability, T/C (second compound 0.3 µM, first compound 0.316 µM) 94.4% | viability, T/C (second compound 0.3 µM, first compound 1 µM) 80.8%
> 1 µM: IC50 (curve of first compound, second compound 0.000949 µM) | IC50 (curve of first compound, second compound 0.003 µM) | IC50 (curve of first compound, second compound 0.00949 µM) | IC50 (curve of first compound, second compound 0.03 µM) | IC50 (curve of first compound, second compound 0.0949 µM) | IC50 (curve of first compound, second compound 0.3 µM)

CCN1CCN(Cc2ccc(Nc3ncc(F)c(-c4cc(F)c5nc(C)n(C(C)C)c5c4)n3)nc2)CC1 + C=CC(=O)N1CCN(c2nc(OCC3CCCN3C)nc3c(F)c(-c4nc(N)cc(C)c4C(F)(F)F)c(Cl)cc23)C(C)C1
inactive: viability, T/C (second compound 0.00316 µM, first compound 0.00316 µM) 102% | viability, T/C (second compound 0.00316 µM, first compound 0.01 µM) 92.7% | viability, T/C (second compound 0.00316 µM, first compound 0.0316 µM) 107% | viability, T/C (second compound 0.00316 µM, first compound 0.1 µM) 88.7% | viability, T/C (second compound 0.00316 µM, first compound 0.316 µM) 69.1% | viability, T/C (second compound 0.00316 µM, first compound 1 µM) 59.7% | viability, T/C (second compound 0.01 µM, first compound 0.00316 µM) 108% | viability, T/C (second compound 0.01 µM, first compound 0.01 µM) 90.1% | viability, T/C (second compound 0.01 µM, first compound 0.0316 µM) 108% | viability, T/C (second compound 0.01 µM, first compound 0.1 µM) 80.5% | viability, T/C (second compound 0.01 µM, first compound 0.316 µM) 80.2% | viability, T/C (second compound 0.01 µM, first compound 1 µM) 77.3% | viability, T/C (second compound 0.0316 µM, first compound 0.00316 µM) 101% | viability, T/C (second compound 0.0316 µM, first compound 0.01 µM) 89.8% | viability, T/C (second compound 0.0316 µM, first compound 0.0316 µM) 88.2% | viability, T/C (second compound 0.0316 µM, first compound 0.1 µM) 80.5% | viability, T/C (second compound 0.0316 µM, first compound 0.316 µM) 95.8% | viability, T/C (second compound 0.0316 µM, first compound 1 µM) 53.9% | viability, T/C (second compound 0.1 µM, first compound 0.00316 µM) 116% | viability, T/C (second compound 0.1 µM, first compound 0.01 µM) 102% | viability, T/C (second compound 0.1 µM, first compound 0.0316 µM) 89% | viability, T/C (second compound 0.1 µM, first compound 0.1 µM) 93.5% | viability, T/C (second compound 0.1 µM, first compound 0.316 µM) 83.7% | viability, T/C (second compound 0.1 µM, first compound 1 µM) 68.1% | viability, T/C (second compound 0.316 µM, first compound 0.00316 µM) 107% | viability, T/C (second compound 0.316 µM, first compound 0.01 µM) 108% | viability, T/C (second compound 0.316 µM, first compound 0.0316 µM) 77.5% | viability, T/C (second compound 0.316 µM, first compound 0.1 µM) 92% | viability, T/C (second compound 0.316 µM, first compound 0.316 µM) 75% | viability, T/C (second compound 0.316 µM, first compound 1 µM) 60.1% | viability, T/C (second compound 1 µM, first compound 0.00316 µM) 97.1% | viability, T/C (second compound 1 µM, first compound 0.01 µM) 92.6% | viability, T/C (second compound 1 µM, first compound 0.0316 µM) 111% | viability, T/C (second compound 1 µM, first compound 0.1 µM) 87% | viability, T/C (second compound 1 µM, first compound 0.316 µM) 83.9% | viability, T/C (second compound 1 µM, first compound 1 µM) 60%
> 1 µM: IC50 (curve of first compound, second compound 0.00316 µM) | IC50 (curve of first compound, second compound 0.01 µM) | IC50 (curve of first compound, second compound 0.0316 µM) | IC50 (curve of first compound, second compound 0.1 µM) | IC50 (curve of first compound, second compound 0.316 µM) | IC50 (curve of first compound, second compound 1 µM)

O=C(c1ccc(F)c(F)c1Nc1ccc(I)cc1F)N1CC(O)([C@@H]2CCCCN2)C1
inactive: viability, T/C (compound 0.00316 µM) 91.9% [middle of 4 runs] | viability, T/C (compound 0.01 µM) 78.6% [middle of 4 runs] | viability, T/C (compound 0.0316 µM) 71% [middle of 4 runs] | viability, T/C (compound 0.1 µM) 53.7% [middle of 4 runs] | viability, T/C (compound 0.316 µM) 51.2% [middle of 4 runs] | viability, T/C (compound 1 µM) 39.7% [middle of 4 runs]
206 nM [middle of 4 runs]: IC50 (curve of compound)
